# Reference: US12365761B2, “Biodegradable ultra-pH sensitive polymers” (priority 2019, dated 2025)
# Tested on: TC-1 tumor model
# Test: PSC7A nanovaccine tumor therapy, TC-1 tumor model
# Assay type: in vivo, C57BL/6 mice
# Conditions: TC-1 model, s.c. at tail base, three injections, versus PBS control
# Source text: The nanovaccine was made by physically mixing tumor specific antigenic peptides and PSC7A nanoparticles. Non-degradable PC7A based nanovaccines were used for comparison. […] Tumor growth was subsequently measured using a digital caliper and calculated as 0.5×length×width^2. Mice were sacrificed when the tumor volumes reached 2000 mm^3.
# PSC7A nanoparticles were first produced and then mixed with tumor-specific antigenic peptides. Human papilloma virus (HPV) E6/E7-transfected TC-1 and murine B16-F10 melanoma tumor models were used. […] In the TC-1 model, E7 peptide antigen (E7p, […] (SEQ. No. 1)) was used. […] Most of the animals were lost within 30 days after tumor inoculation.
sequence,measurement,value
GQAEPDRAHYNIVTFCCKCD [E7p],tumor growth inhibition,marginal tumor growth inhibition
